Measurements from publication PMC6273036, “N-Alkoxyphenylhydroxynaphthalenecarboxamides and Their Antimycobacterial Activity” (Molecules, 2016).
In brackets after ≈: the same amount, converted by molar mass.

How the values were obtained:
[1] = tested on: Mycobacterium tuberculosis H37Ra ATCC 25177; assay: In vitro antimycobacterial evaluation (alamarBlue, MIC) against M. tuberculosis; assay type: cell-based; details: 168 h, M. tuberculosis H37Ra ATCC 25177, MIC = 90% or greater (IC90) reduction of growth, 7 days
Experimental: The evaluation of the in vitro antimycobacterial activity of the compounds was performed against Mycobacterium tuberculosis H37Ra ATCC 25177 (MT), M. kansasii DSM 44162 (MK) and M. smegmatis ATCC 700084 (MS), see Table 1. To lower risk and make manipulation in the laboratory easier, surrogate model pathogens for M. tuberculosis can be used in laboratory studies. Avirulent M. tuberculosis strain H37Ra is very closely related to and has similar pathology as human-infecting M. tuberculosis strains, making it a good model for study especially because of the lower risk for laboratory workers. M. kansasii, the most virulent of the NTM, causes nontuberculous mycobacterial lung infections, which are now very common, and can be indistinguishable from tuberculosis. M. smegmatis is an ideal representative of a fast-growing nonpathogenic microorganism, particularly useful in studying basic cellular processes of special relevance to pathogenic mycobacteria. Therefore additionally M. kansasii and M. smegmatis were chosen as model species for screening of prospective antimycobacterial drugs to control mycobacterial diseases. The potency of the compounds was expressed as the minimum inhibitory concentration (MIC) that is defined for mycobacteria as 90% or greater (IC90) reduction of growth in comparison with the control.
Mycobacterium tuberculosis H37Ra ATCC 25177 was grown in Middlebrook broth (MB), supplemented with Oleic-Albumin-Dextrose-Catalase (OADC) supplement (Becton, Dickinson & Comp., Franklin Lakes, NJ, USA) and mycobactin J (2 μg/mL). At log phase growth, a culture sample (10 mL) was centrifuged at 15,000 rpm/20 min using a bench top centrifuge (Model CR 4-12, Jouan Inc., Winchester, VA, USA). Following the removal of the supernatant, the pellet was washed in fresh Middlebrook 7H9GC broth and re-suspended in fresh, ODAC-supplemented MB (10 mL). The turbidity was adjusted to match McFarland standard No. 1 (3 × 10^8 cfu) with MB broth. A further 1:20 dilution of the culture was then performed in MB broth. The antimicrobial susceptibility of M. tuberculosis was investigated in a 96-well plate format. In these experiments, sterile deionised water (300 µL) was added to all outer-perimeter wells of the plates to minimize evaporation of the medium in the test wells during incubation. Each evaluated compound (100 µL) was incubated with M. tuberculosis (100 µL). Dilutions of each compound were prepared in duplicate. For all synthesized compounds, final concentrations ranged from 1000 μg/mL to 8 μg/mL. All compounds were dissolved in DMSO, and subsequent dilutions were made in supplemented MB. The plates were sealed with parafilm and incubated at 37 °C for 7 days. Following incubation, a 10% addition of alamarBlue (AbD Serotec, Kidlington, UK) was mixed into each well, and readings at 570 nm and 600 nm were taken, initially for background subtraction and subsequently after 24 h re-incubation. The background subtraction is necessary for strongly coloured compounds, where the colour may interfere with the interpretation of any colour change. For non-interfering compounds, a blue colour in the well was interpreted as the absence of growth, and a pink colour was scored as growth.
The minimum inhibitory concentration (MIC) was defined as the lowest concentration of the compound at which no visible bacterial growth was observed, i.e., the MIC is the lowest concentration that prevented a visual colour change from blue to pink. MIC is defined for mycobacteria as 90% or greater (IC90) reduction of growth in comparison with the control. The MIC/IC90 value is routinely and widely used in bacterial assays and is a standard detection limit according to the Clinical and Laboratory Standards Institute (CLSI, www.clsi.org). Rifampicin and isoniazid (Sigma-Aldrich) were used as the standards as they are clinically used antimycobacterial drugs.

M. smegmatis ATCC 700084 = assay: In vitro antimycobacterial evaluation (broth dilution micro-method, MIC) against M. smegmatis; assay type: cell-based; details: Mycolicibacterium smegmatis, ATCC700084, 72 h; Mycobacterium smegmatis ATCC 700084; MIC = IC90; 3 days incubation, visual
[2] = tested on: Mycobacterium kansasii DSM 44162; assay: In vitro antimycobacterial evaluation (broth dilution micro-method, MIC) against M. kansasii; assay type: cell-based; details: DSM44162, 168 h, M. kansasii DSM 44162, MIC = IC90, 7 days incubation, visual
[3] = tested on: human monocytic leukemia THP-1 cells; assay: In vitro antiproliferative assay (WST-1); details: THP-1, 24 h, read-out: IC50 (antiproliferative activity)
Experimental: Human monocytic leukemia THP-1 cells were used for in vitro antiproliferative assay. Cells were obtained from the European Collection of Cell Cultures (ECACC, Salisbury, UK) and routinely cultured in RPMI 1640 medium supplemented with 10% fetal bovine serum, 2% L-glutamine, 1% penicillin and streptomycin at 37 °C with 5% CO2. Cells were passaged at approximately one-week intervals. Antiproliferative activity of the compounds was determined using a Water Soluble Tetrazolium Salts-1 (WST-1, 2-(4-iodophenyl)-3-(4-nitrophenyl)-5-(2,4-disulfophenyl)-2H-tetrazolium) assay kit (Roche Diagnostics, Mannheim, Germany) according to the manufacturer’s instructions. The tested compounds were dissolved in DMSO and added in five increasing concentrations (0.37, 1.1, 3.3, 10 and 30 μM) to the cell suspension in the culture RPMI 1640 medium. The maximum concentration of DMSO in the assays never exceeded 0.1%. Subsequently, the cells were incubated for 24 h at 37 °C with 5% CO2. For WST-1 assays, cells were seeded into 96-well plates (5 × 10^4 cells/well in 100 μL culture medium) in triplicate in serum-free RPMI 1640 medium, and measurements were taken 24 h after the treatment with the compounds. The median inhibition concentration values, IC50, were deduced through the production of a dose-response curve. All data were evaluated using GraphPad Prism 5.00 software (GraphPad Software, San Diego, CA, USA).

Structure (SMILES) | MIC [1] | MIC (M. smegmatis ATCC 700084) | MIC [2] | IC50 [3]
O=C(Nc1ccccc1)c1ccc2ccccc2c1O [Compound 8, 1-Hydroxy-N-phenylnaphthalene-2-carboxamide] | 97 µM (≈ 25.5 µg/mL) | 243 µM (≈ 64 µg/mL) | 15 µM (≈ 3.95 µg/mL) | > 30 µM
O=C(Nc1ccccc1)c1c(O)ccc2ccccc12 [Compound 1, 2-Hydroxy-N-phenylnaphthalene-1-carboxamide] | 94 µM (≈ 24.7 µg/mL) | – | 15 µM (≈ 3.95 µg/mL) | > 30 µM
CC(C)Oc1cccc(NC(=O)c2c(O)ccc3ccccc23)c1 [Compound 6b, 2-Hydroxy-N-[3-(prop-2-yloxy)phenyl]naphthalene-1-carboxamide] | 778 µM (≈ 250 µg/mL) | 398 µM (≈ 128 µg/mL) | 199 µM (≈ 64 µg/mL) | 8.84 ± 0.22 µM
COc1ccccc1NC(=O)c1c(O)ccc2ccccc12 [Compound 2a, 2-hydroxy-N-(2-methoxyphenyl)naphtha-lene-1-carboxamide] | 852 µM (≈ 250 µg/mL) | 873 µM (≈ 256 µg/mL) | 873 µM (≈ 256 µg/mL) | –
CCCOc1cccc(NC(=O)c2c(O)ccc3ccccc23)c1 [Compound 4b, 2-Hydroxy-N-(3-propoxyphenyl)naphthalene-1-carboxamide] | 46 µM (≈ 14.8 µg/mL) | 398 µM (≈ 128 µg/mL) | 199 µM (≈ 64 µg/mL) | 8.97 ± 0.34 µM
CCCCOc1ccccc1NC(=O)c1ccc2ccccc2c1O [Compound 12a, N-(2-Butoxyphenyl)-1-hydroxynaphthalene-2-carboxamide] | 745 µM (≈ 250 µg/mL) | 763 µM (≈ 256 µg/mL) | 763 µM (≈ 256 µg/mL) | –
COc1cccc(NC(=O)c2c(O)ccc3ccccc23)c1 [Compound 2b, 2-hydroxy-N-(3-methoxyphenyl)naphthalene-1-carboxamide] | 852 µM (≈ 250 µg/mL) | – | – | –
CC(C)Oc1ccccc1NC(=O)c1c(O)ccc2ccccc12 [Compound 6a, 2-Hydroxy-N-[2-(prop-2-yloxy)phenyl]naphthalene-1-carboxamide] | 31 µM (≈ 9.96 µg/mL) | 796 µM (≈ 256 µg/mL) | 99 µM (≈ 31.8 µg/mL) | > 30 µM
COc1cccc(NC(=O)c2ccc3ccccc3c2O)c1 [Compound 9b, 1-hydroxy-N-(3-methoxyphenyl)naphthalene-2-carboxamide] | 852 µM (≈ 250 µg/mL) | 873 µM (≈ 256 µg/mL) | 873 µM (≈ 256 µg/mL) | –
CC(C)Oc1cccc(NC(=O)c2ccc3ccccc3c2O)c1 [Compound 13b, 1-Hydroxy-N-[3-(prop-2-yloxy)phenyl]naphthalene-2-carboxamide] | 389 µM (≈ 125 µg/mL) | 796 µM (≈ 256 µg/mL) | 796 µM (≈ 256 µg/mL) | 4.32 ± 0.74 µM
CCCOc1ccc(NC(=O)c2ccc3ccccc3c2O)cc1 [Compound 11c, 1-Hydroxy-N-(4-propoxyphenyl)naphthalene-2-carboxamide] | 778 µM (≈ 250 µg/mL) | 796 µM (≈ 256 µg/mL) | 24 µM (≈ 7.71 µg/mL) | > 30 µM
CCCCOc1ccc(NC(=O)c2ccc3ccccc3c2O)cc1 [Compound 12c, N-(4-Butoxyphenyl)-1-hydroxynaphthalene-2-carboxamide] | 745 µM (≈ 250 µg/mL) | 763 µM (≈ 256 µg/mL) | 23 µM (≈ 7.71 µg/mL) | > 30 µM
CCC(C)Oc1ccccc1NC(=O)c1c(O)ccc2ccccc12 (centres unmarked) [Compound 7a, N-[2-(But-2-yloxy)phenyl]-2-hydroxynaphthalene-1-carboxamide] | 44 µM (≈ 14.8 µg/mL) | 763 µM (≈ 256 µg/mL) | 95 µM (≈ 31.9 µg/mL) | 8.35 ± 1.25 µM
NNC(=O)c1ccncc1 [INH, isoniazid, reference compound] | 58 µM (≈ 7.95 µg/mL) | – | – | > 30 µM
CCCCOc1ccccc1NC(=O)c1c(O)ccc2ccccc12 [Compound 5a, N-(2-Butoxyphenyl)-2-hydroxynaphthalene-1-carboxamide] | 745 µM (≈ 250 µg/mL) | 763 µM (≈ 256 µg/mL) | 763 µM (≈ 256 µg/mL) | > 30 µM
CCCOc1ccccc1NC(=O)c1c(O)ccc2ccccc12 [Compound 4a, 2-Hydroxy-N-(2-propoxyphenyl)naphthalene-1-carboxamide] | 37 µM (≈ 11.9 µg/mL) | 796 µM (≈ 256 µg/mL) | 99 µM (≈ 31.8 µg/mL) | > 30 µM
CCOc1cccc(NC(=O)c2c(O)ccc3ccccc23)c1 [Compound 3b, N-(3-Ethoxyphenyl)-2-hydroxynaphthalene-1-carboxamide] | 813 µM (≈ 250 µg/mL) | 416 µM (≈ 128 µg/mL) | 208 µM (≈ 63.9 µg/mL) | –
CCC(C)Oc1ccccc1NC(=O)c1ccc2ccccc2c1O (centres unmarked) [Compound 14a, N-[2-(But-2-yloxy)phenyl]-1-hydroxynaphthalene-2-carboxamide] | 745 µM (≈ 250 µg/mL) | 763 µM (≈ 256 µg/mL) | 47 µM (≈ 15.8 µg/mL) | 9.03 ± 1.18 µM
CCOc1cccc(NC(=O)c2ccc3ccccc3c2O)c1 [Compound 10b, N-(3-Ethoxyphenyl)-1-hydroxynaphthalene-2-carboxamide] | 813 µM (≈ 250 µg/mL) | 832 µM (≈ 256 µg/mL) | 52 µM (≈ 16 µg/mL) | 3.02 ± 0.96 µM
CCOc1ccccc1NC(=O)c1ccc2ccccc2c1O [Compound 10a, N-(2-Ethoxyphenyl)-1-hydroxynaphthalene-2-carboxamide] | 813 µM (≈ 250 µg/mL) | 832 µM (≈ 256 µg/mL) | 832 µM (≈ 256 µg/mL) | –
COc1ccccc1NC(=O)c1ccc2ccccc2c1O [Compound 9a, 1-hydroxy-N-(2-methoxyphenyl)naphtha-lene-2-carboxamide] | 852 µM (≈ 250 µg/mL) | 873 µM (≈ 256 µg/mL) | 873 µM (≈ 256 µg/mL) | –
CCOc1ccc(NC(=O)c2ccc3ccccc3c2O)cc1 [Compound 10c, N-(4-Ethoxyphenyl)-1-hydroxynaphthalene-2-carboxamide] | 813 µM (≈ 250 µg/mL) | 832 µM (≈ 256 µg/mL) | 832 µM (≈ 256 µg/mL) | –
COc1ccc(NC(=O)c2c(O)ccc3ccccc23)cc1 [Compound 2c, 2-hydroxy-N-(4-methoxyphenyl)naphthalene-1-carboxamide] | 852 µM (≈ 250 µg/mL) | – | – | –
CCCCOc1ccc(NC(=O)c2c(O)ccc3ccccc23)cc1 [Compound 5c, N-(4-Butoxyphenyl)-2-hydroxynaphthalene-1-carboxamide] | 745 µM (≈ 250 µg/mL) | 763 µM (≈ 256 µg/mL) | 95 µM (≈ 31.9 µg/mL) | > 30 µM
CO[C@H]1/C=C/O[C@@]2(C)Oc3c(C)c(O)c4c(O)c(c(/C=N/N5CCN(C)CC5)c(O)c4c3C2=O)NC(=O)/C(C)=C\C=C\[C@H](C)[C@H](O)[C@@H](C)[C@@H](O)[C@@H](C)[C@H](OC(C)=O)[C@@H]1C [RIF, rifampicin, reference compound] | 10 µM (≈ 8.23 µg/mL) | 19 µM (≈ 15.6 µg/mL) | 0.15 µM (≈ 0.123 µg/mL) | > 30 µM
CCC(C)Oc1ccc(NC(=O)c2ccc3ccccc3c2O)cc1 (centres unmarked) [Compound 14c, N-[4-(But-2-yloxy)phenyl]-1-hydroxynaphthalene-2-carboxamide] | 745 µM (≈ 250 µg/mL) | 12 µM (≈ 4.02 µg/mL) | 23 µM (≈ 7.71 µg/mL) | 3.41 ± 0.41 µM
COc1ccc(NC(=O)c2ccc3ccccc3c2O)cc1 [Compound 9c, 1-hydroxy-N-(4-methoxyphenyl)naphthalene-2-carboxamide] | 852 µM (≈ 250 µg/mL) | 873 µM (≈ 256 µg/mL) | 873 µM (≈ 256 µg/mL) | –
CC(C)Oc1ccc(NC(=O)c2ccc3ccccc3c2O)cc1 [Compound 13c, 1-Hydroxy-N-[4-(prop-2-yloxy)phenyl]naphthalene-2-carboxamide] | 778 µM (≈ 250 µg/mL) | 796 µM (≈ 256 µg/mL) | 49 µM (≈ 15.7 µg/mL) | 9.39 ± 1.39 µM
CCCOc1ccccc1NC(=O)c1ccc2ccccc2c1O [Compound 11a, 1-Hydroxy-N-(2-propoxyphenyl)naphthalene-2-carboxamide] | 778 µM (≈ 250 µg/mL) | 796 µM (≈ 256 µg/mL) | 24 µM (≈ 7.71 µg/mL) | –
CC(C)Oc1ccccc1NC(=O)c1ccc2ccccc2c1O [Compound 13a, 1-Hydroxy-N-[2-(prop-2-yloxy)phenyl]naphthalene-2-carboxamide] | 778 µM (≈ 250 µg/mL) | 796 µM (≈ 256 µg/mL) | 796 µM (≈ 256 µg/mL) | –
